Assay results: paper PMC12006171, “Marsupial cathelicidins: characterization, antimicrobial activity and evolution in this unique mammalian lineage” (Frontiers in Immunology, 2025)
Read-outs that look alike come from different tables or passages of the source. Where a SMILES comes first, the peptide text is derived from it.

Columns and labels:
[1] = tested on: six bacteria (S. aureus, E. coli, P. aeruginosa; ATCC and clinical isolate); format: cell-based; conditions: synthesized mature peptide
How it was run: (§1)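 Broth microdilution per CLSI M07-A/M26A: DMSO-solubilized cathelicidin mature peptides at final 64-0.125μg/mL in Mueller Hinton broth (with or without 10% lysed horse blood, with or without calcium/magnesium), final inoculum 5 x 10^5 CFU/mL, 35°C for 20–24 hours. MIC = lowest concentration preventing visible growth.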

[2] = tested on: three fungi (Candida krusei, Candida parapsilosis, Candida albicans); experiment: Antifungal screening, summary over the panel of fungi (broth microdilution); format: cell-based; conditions: synthesized mature peptide
How it was run: (§2)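 Broth microdilution per CLSI M07-A/M26A; peptides in DMSO, final 64-0.125 μg/mL, inoculum 5 x 10^5 CFU/mL. Bacteria in MHB ± 10% lysed horse blood ± Ca/Mg cations, yeasts in RPMI-1640 MOPS; 35°C for 20–24 h. MIC is lowest concentration without visible growth.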

[3] = tested on: panel of 11 bacteria and three fungi; experiment: Antimicrobial screening phases I and II, summary over all strains; format: cell-based; conditions: active = MIC ≤64µg/mL against the strains tested
Experimental: Antimicrobial testing of 78 cathelicidin MPs was performed in two phases as outlined in Figure 1 . In phase I, 40 peptides (27 extant and 13 ancestral) were selected for testing based on rank (outlined above) and similarity to published marsupial cathelicidins with known antimicrobial activity ([33], [41]–[43]). These peptides were tested against nine bacteria (Staphylococcus aureus ATCC 29213 and clinical isolate, Escherichia coli ATCC 25922 and clinical isolate, Pseudomonas aeruginosa ATCC 27853 and clinical isolate, Streptococcus agalactiae ATCC 12386 and clinical isolate, Streptococcus pneumoniae ATCC 49619) and three fungi (Candida krusei ATCC 6258, Candida parapsilosis ATCC 22019, and Candida albicans clinical isolate). Details regarding these strains are available in Supplementary Table 4 . The antimicrobial activity of cathelicidins was determined as the minimum inhibitory concentration (MIC), which was the lowest concentration of cathelicidin that prevented visible bacterial or fungal growth, relative to the negative control. […]
Antimicrobial activity was determined using a broth microdilution susceptibility assay in 96 well polypropylene plates according to Clinical Laboratory Standards Institute guidelines M07-A and M26A as described previously ([33], [42], [43]). […]

[4] = tested on: Escherichia coli clinical isolate - animal; experiment: microbe, parasite or virus in culture; format: cell-based
How it was run: as §1

[5] = tested on: Staphylococcus aureus ATCC 29213; experiment: microbe, parasite or virus in culture; format: cell-based; conditions: ATCC 29213; read-out: MIC S. aureus ATCC
How it was run: as §1

[6] = tested on: Staphylococcus aureus clinical isolate - animal; experiment: microbe, parasite or virus in culture; format: cell-based; conditions: clinical isolate - animal; read-out: MIC S. aureus
How it was run: as §1

[7] = tested on: Pseudomonas aeruginosa clinical isolate - animal; experiment: microbe, parasite or virus in culture; format: cell-based; conditions: clinical isolate - animal; read-out: MIC P. aeruginosa
How it was run: as §1

[8] = tested on: Pseudomonas aeruginosa ATCC 27853; experiment: microbe, parasite or virus in culture; format: cell-based; conditions: ATCC 27853; read-out: MIC P. aeruginosa ATCC
How it was run: as §1

[9] = tested on: Escherichia coli ATCC 25922; experiment: microbe, parasite or virus in culture; format: cell-based
How it was run: as §1

[10] = tested on: Streptococcus agalactiae Clinical isolate - animal; experiment: microbe, parasite or virus in culture; format: cell-based; conditions: clinical isolate - animal; read-out: MIC S. agalactiae
How it was run: as §2

[11] = tested on: Streptococcus agalactiae ATCC 12386; experiment: microbe, parasite or virus in culture; format: cell-based; conditions: ATCC 12386; read-out: MIC S. agalactiae ATCC
How it was run: as §2

[12] = tested on: Streptococcus pneumoniae ATCC 49619; experiment: microbe, parasite or virus in culture; format: cell-based; conditions: ATCC 49619; read-out: MIC S. pneumoniae ATCC
How it was run: as §2

[13] = in vivo; cited from earlier work
[14] = tested on: bacterial and fungal infections in chemotherapy patients; conditions: human, in vivo; cited from earlier work
[15] = tested on: six bacteria (S. aureus, E. coli, P. aeruginosa; ATCC and clinical isolate); design: method as in 4 sources, ref Peel et al 2016 ||| ref Peel et al 2021 ||| ref Wang et al 2011 ||| ref Peel et al 2017; conditions: mature peptide; Y/N summary from earlier study; ref Peel et al 2021; cited from earlier work
[16] = tested on: three fungi (Candida krusei, Candida parapsilosis, Candida albicans); design: method as in 4 sources, ref Peel et al 2016 ||| ref Peel et al 2021 ||| ref Wang et al 2011 ||| ref Peel et al 2017; conditions: mature peptide; Y/N summary from earlier study; ref Peel et al 2021; cited from earlier work
Chlamydia = conditions: in vitro; cited from earlier work
Description: Many marsupial and monotreme cathelicidins were closely related to the classic cathelicidins found in eutherians. These cathelicidins sit within clade II in the phylogenetic tree, sister to eutherians but were not orthologous ( Figure 3 ). Classic marsupial cathelicidins were encoded in cluster A in the genome of all marsupials and monotremes studied, syntenic to the single cathelicidin gene/cluster in eutherians ( Figure 2 ). Many of these were antimicrobial and bactericidal, with MICs equal to or less than eutherian peptides such as cow BMAP-27 and -28 ([87]) and human LL-37, including again ...

RFKRSLSDGVIDTSSLPPRIRDIYLQAKYDIISRILRN [MAP1, marsupial ancestral peptide 1, predicted ancestral cathelicidin of the NGP clade]
Antibacterial (MIC <64ug/mL) ([1]; antimicrobial screening Phase I, Y/N summary over bacteria tested, broth microdilution): N (Antibacterial (MIC <64ug/mL))
Antifungal (MIC <64ug/mL) ([2]; antimicrobial screening Phase I, Y/N summary over fungi tested, broth microdilution): N (Antifungal (MIC <64ug/mL))
Antimicrobial activity in the assays [3]: none displayed antimicrobial activity

CC[C@H](C)[C@H](NC(=O)[C@H](CCCNC(=N)N)NC(=O)[C@H](CCCNC(=N)N)NC(=O)[C@@H]1CCCN1C(=O)[C@H](CC(N)=O)NC(=O)[C@H](CS)NC(=O)[C@H](CCCCN)NC(=O)[C@H](CCCNC(=N)N)NC(=O)[C@@H](NC(=O)[C@H](CC(C)C)NC(=O)[C@H](CC(C)C)NC(=O)[C@H](CS)NC(=O)[C@H](CCCNC(=N)N)NC(=O)[C@H](CCCCN)NC(=O)[C@H](CCCNC(=N)N)NC(=O)[C@H](CCCCN)NC(=O)[C@H](Cc1ccccc1)NC(=O)[C@H](CCCNC(=N)N)NC(=O)[C@H](CC(C)C)NC(=O)[C@@H]1CCCN1C(=O)[C@H](CCC(=O)O)NC(=O)[C@@H]1CCCN1)[C@@H](C)O)C(=O)N[C@H](C(=O)N[C@@H](Cc1ccccc1)C(=O)N[C@@H](CO)C(=O)N[C@@H](CC(C)C)C(=O)N[C@@H](CC(C)C)C(=O)N[C@@H](CCCCN)C(=O)NCC(=O)N[C@@H](CCCCN)C(=O)O)[C@@H](C)O [TrvuCath2] (H-PEPLRFKRKRCLLTRKCNPRRITFSLLKGK-OH; N-terminus and C-terminus assumed)
Antibacterial (MIC <64ug/mL) ([1]; broth microdilution screening, phase I or II, Y/N summary over the bacteria tested): Y (Antibacterial (MIC <64ug/mL))
Antifungal (MIC <64ug/mL) ([2]; broth microdilution screening, phase I, Y/N summary over the fungi tested): N (Antifungal (MIC <64ug/mL))
MBC E. coli ([4]; clinical isolate - animal): 17.5 (17.5)^17.5 µM
MIC E. coli ([4]; clinical isolate - animal): 17.5 (17.5)^17.5 µM
MIC in the presence of cations E. coli ([4]; clinical isolate - animal): 17.5 (17.5)^17.5 µM
MIC E. coli ([4]; clinical isolate, MHB without cations, 5 x 10^5 CFU/mL, 35°C 20–24 hours, duplicate): 64 (64)^64 µg/mL
MIC in the presence of cations E. coli ([4]; clinical isolate, superscript value, cation-adjusted Mueller Hinton broth): 64 (64)^64 µg/mL
MBC E. coli ([4]; clinical isolate, value in brackets, 99.9% reduction in CFU/mL): 64 (64)^64 µg/mL
MIC [5]: >17.5 µM
MIC [6]: >17.5 µM
MIC [7]: >17.5 µM
MIC [8]: >17.5 µM
MBC E. coli ATCC ([9]; ATCC 25922): 17.5 (17.5)^17.5 µM
MIC E. coli ATCC ([9]; ATCC 25922): 17.5 (17.5)^17.5 µM
MIC in the presence of cations E. coli ATCC ([9]; ATCC 25922): 17.5 (17.5)^17.5 µM
MIC E. coli ATCC ([9]; MHB without cations, 5 x 10^5 CFU/mL, 35°C 20–24 hours, duplicate): 64 (64)^64 µg/mL
MIC in the presence of cations E. coli ATCC ([9]; superscript value, cation-adjusted Mueller Hinton broth): 64 (64)^64 µg/mL
MBC E. coli ATCC ([9]; value in brackets, 99.9% reduction in CFU/mL): 64 (64)^64 µg/mL
Antimicrobial activity in the assays [3]: displayed activity
MIC [10]: >17.5 µM
MIC [11]: >17.5 µM
MIC [12]: >17.5 µM

iseganan
Clinical outcomes in ventilator-associated pneumonia [13]: no difference was observed between treated or placebo groups
Bacterial and fungal infections in oral mucositis patients [14]: significantly reducing bacterial and fungal infections

KRGGIWKLIRPLGRGAGRILRHFHIDFCGNC [PhciCath5, koala cathelicidin, reference compound]
Antibacterial (MIC <64ug/mL) [15]: Y (Peel et al 2021) (Antibacterial (MIC <64ug/mL))
Antifungal (MIC <64ug/mL) [16]: Y (Peel et al 2021) (Antifungal (MIC <64ug/mL))
Killing of Chlamydia (Chlamydia): killed Chlamydia in vitro
